Assay results published in ChEMBL document CHEMBL6127076, “Scaffold hopping-driven optimization for the identification of NLRP3 inhibitors as potential gout therapeutics” (Eur J Med Chem, 2024).
Converted amounts (≈) assume the structure as drawn. The source made the active and inactive calls. The calls are words filed in the database; no cut-off is given here.

system: not listed separately; test: Plasma stability in human plasma assessed as compound remaining measured after 120 mins; assay type: ADME, cell-free; details: read-out: Stability

| SMILES | remaining at 2 h [%] |
| --- | --- |
| CC1(C)C(=O)N(c2ccc(Oc3ccccc3)cc2)C(=S)N1Cc1ccc(S(N)(=O)=O)c(F)c1 | 93.3 |
| CC(C)(C)c1ccc(N2C(=O)C(C)(C)N(Cc3ccc(S(N)(=O)=O)c(F)c3)C2=S)cc1 | 82.5 |
| CC1(C)C(=O)N(c2cc(C(F)(F)F)cc(C(F)(F)F)c2)C(=S)N1Cc1ccc(S(N)(=O)=O)c(F)c1 | 91.8 |
| Cc1ccc(CN2C(=S)N(c3ccc(C(C)(C)C)cc3)C(=O)C2(C)C)cc1C | 93.6 |

target: T1, Cytochrome P450 3A4 (Homo sapiens, UniProt P08684); test: Inhibition of CYP3A4 (unknown origin) using midazolam as substrate; assay type: ADME; details: not given
T1 sequence (P08684 whole entry): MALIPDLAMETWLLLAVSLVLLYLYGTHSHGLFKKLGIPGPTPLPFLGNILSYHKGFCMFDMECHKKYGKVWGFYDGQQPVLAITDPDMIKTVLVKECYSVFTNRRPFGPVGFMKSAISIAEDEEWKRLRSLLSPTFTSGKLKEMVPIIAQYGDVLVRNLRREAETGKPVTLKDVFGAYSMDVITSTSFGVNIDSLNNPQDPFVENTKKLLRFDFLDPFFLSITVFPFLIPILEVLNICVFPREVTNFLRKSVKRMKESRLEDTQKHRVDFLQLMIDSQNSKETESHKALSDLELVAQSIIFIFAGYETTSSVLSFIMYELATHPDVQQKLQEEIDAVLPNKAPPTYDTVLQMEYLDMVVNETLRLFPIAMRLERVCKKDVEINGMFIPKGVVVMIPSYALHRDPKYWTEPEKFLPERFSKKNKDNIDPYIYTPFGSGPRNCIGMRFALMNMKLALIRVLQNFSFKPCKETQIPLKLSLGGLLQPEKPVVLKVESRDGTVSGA

| SMILES | IC50 [µM] |
| --- | --- |
| CC1(C)C(=O)N(c2ccc(Oc3ccccc3)cc2)C(=S)N1Cc1ccc(S(N)(=O)=O)c(F)c1 | > 10 |
| CC(C)(C)c1ccc(N2C(=O)C(C)(C)N(Cc3ccc(S(N)(=O)=O)c(F)c3)C2=S)cc1 | > 10 |
| CC1(C)C(=O)N(c2cc(C(F)(F)F)cc(C(F)(F)F)c2)C(=S)N1Cc1ccc(S(N)(=O)=O)c(F)c1 | > 10 |
| Cc1ccc(CN2C(=S)N(c3ccc(C(C)(C)C)cc3)C(=O)C2(C)C)cc1C | > 10 |

system: not listed separately; test: Plasma stability in human plasma assessed as compound remaining measured immediately; assay type: ADME, cell-free; details: read-out: Stability

| SMILES | remaining at 0 min [%] |
| --- | --- |
| CC1(C)C(=O)N(c2ccc(Oc3ccccc3)cc2)C(=S)N1Cc1ccc(S(N)(=O)=O)c(F)c1 | 100 |
| CC(C)(C)c1ccc(N2C(=O)C(C)(C)N(Cc3ccc(S(N)(=O)=O)c(F)c3)C2=S)cc1 | 100 |
| CC1(C)C(=O)N(c2cc(C(F)(F)F)cc(C(F)(F)F)c2)C(=S)N1Cc1ccc(S(N)(=O)=O)c(F)c1 | 100 |
| Cc1ccc(CN2C(=S)N(c3ccc(C(C)(C)C)cc3)C(=O)C2(C)C)cc1C | 100 |

system: HEK-293T; test: Cytotoxicity against human HEK293T cells assessed as cell viability at 50 uM measured after 24 hrs by CCK8 assay; assay type: toxicity, cell-based; details: not given

| SMILES | Activity |
| --- | --- |
| CC1(C)C(=O)N(c2ccc(Oc3ccccc3)cc2)C(=S)N1Cc1ccc(S(N)(=O)=O)c(F)c1 | Toxic |
| CC(C)(C)c1ccc(N2C(=O)C(C)(C)N(Cc3ccc(S(N)(=O)=O)c(F)c3)C2=S)cc1 | Toxic |
| CC1(C)C(=O)N(c2cc(C(F)(F)F)cc(C(F)(F)F)c2)C(=S)N1Cc1ccc(S(N)(=O)=O)c(F)c1 | Toxic |
| Cc1ccc(CN2C(=S)N(c3ccc(C(C)(C)C)cc3)C(=O)C2(C)C)cc1C | Toxic |

system: not listed separately; test: Plasma stability in human plasma assessed as compound remaining measured after 15 mins; assay type: ADME, cell-free; details: read-out: Stability

| SMILES | remaining at 0.25 h [%] |
| --- | --- |
| CC1(C)C(=O)N(c2ccc(Oc3ccccc3)cc2)C(=S)N1Cc1ccc(S(N)(=O)=O)c(F)c1 | 101 |
| CC(C)(C)c1ccc(N2C(=O)C(C)(C)N(Cc3ccc(S(N)(=O)=O)c(F)c3)C2=S)cc1 | 89.8 |
| CC1(C)C(=O)N(c2cc(C(F)(F)F)cc(C(F)(F)F)c2)C(=S)N1Cc1ccc(S(N)(=O)=O)c(F)c1 | 98.8 |
| Cc1ccc(CN2C(=S)N(c3ccc(C(C)(C)C)cc3)C(=O)C2(C)C)cc1C | 103 |

system: not listed separately; test: Aqueous solubility of the compound in pH 7.4 PBS buffer; assay type: physicochemical; details: not given

| SMILES | solubility [µM] |
| --- | --- |
| CC1(C)C(=O)N(c2ccc(Oc3ccccc3)cc2)C(=S)N1Cc1ccc(S(N)(=O)=O)c(F)c1 | 2.56 (≈ 1.28 µg/mL) |
| CC(C)(C)c1ccc(N2C(=O)C(C)(C)N(Cc3ccc(S(N)(=O)=O)c(F)c3)C2=S)cc1 | 19.3 (≈ 8.95 µg/mL) |
| CC1(C)C(=O)N(c2cc(C(F)(F)F)cc(C(F)(F)F)c2)C(=S)N1Cc1ccc(S(N)(=O)=O)c(F)c1 | 14 (≈ 7.61 µg/mL) |
| Cc1ccc(CN2C(=S)N(c3ccc(C(C)(C)C)cc3)C(=O)C2(C)C)cc1C | 0.089 (≈ 0.0351 µg/mL) |

target: T2, Cytochrome P450 1A2 (Homo sapiens, UniProt P05177); test: Inhibition of CYP1A2 (unknown origin); assay type: ADME; details: not given
T2 sequence (P05177 whole entry): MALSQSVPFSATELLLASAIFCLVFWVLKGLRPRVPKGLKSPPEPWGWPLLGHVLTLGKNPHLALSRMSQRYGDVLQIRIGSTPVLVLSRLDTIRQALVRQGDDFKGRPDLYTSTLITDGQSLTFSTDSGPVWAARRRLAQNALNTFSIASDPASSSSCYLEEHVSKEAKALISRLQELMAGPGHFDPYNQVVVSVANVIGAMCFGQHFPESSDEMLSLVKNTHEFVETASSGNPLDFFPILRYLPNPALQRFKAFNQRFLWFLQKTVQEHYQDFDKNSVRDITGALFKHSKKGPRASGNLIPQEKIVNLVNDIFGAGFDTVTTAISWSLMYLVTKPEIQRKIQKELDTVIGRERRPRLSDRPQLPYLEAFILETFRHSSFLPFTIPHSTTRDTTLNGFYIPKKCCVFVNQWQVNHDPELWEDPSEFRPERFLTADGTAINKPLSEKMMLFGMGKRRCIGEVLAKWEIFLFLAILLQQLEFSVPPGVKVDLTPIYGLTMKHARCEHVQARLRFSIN

| SMILES | IC50 [µM] |
| --- | --- |
| CC1(C)C(=O)N(c2ccc(Oc3ccccc3)cc2)C(=S)N1Cc1ccc(S(N)(=O)=O)c(F)c1 | > 100 |
| CC(C)(C)c1ccc(N2C(=O)C(C)(C)N(Cc3ccc(S(N)(=O)=O)c(F)c3)C2=S)cc1 | > 100 |
| CC1(C)C(=O)N(c2cc(C(F)(F)F)cc(C(F)(F)F)c2)C(=S)N1Cc1ccc(S(N)(=O)=O)c(F)c1 | > 100 |
| Cc1ccc(CN2C(=S)N(c3ccc(C(C)(C)C)cc3)C(=O)C2(C)C)cc1C | > 100 |

system: not listed separately; test: Plasma stability in human plasma assessed as compound remaining measured after 5 mins; assay type: ADME, cell-free; details: read-out: Stability

| SMILES | remaining at 5 min [%] |
| --- | --- |
| CC1(C)C(=O)N(c2ccc(Oc3ccccc3)cc2)C(=S)N1Cc1ccc(S(N)(=O)=O)c(F)c1 | 97.2 |
| CC(C)(C)c1ccc(N2C(=O)C(C)(C)N(Cc3ccc(S(N)(=O)=O)c(F)c3)C2=S)cc1 | 96.7 |
| CC1(C)C(=O)N(c2cc(C(F)(F)F)cc(C(F)(F)F)c2)C(=S)N1Cc1ccc(S(N)(=O)=O)c(F)c1 | 91.3 |
| Cc1ccc(CN2C(=S)N(c3ccc(C(C)(C)C)cc3)C(=O)C2(C)C)cc1C | 99.8 |

target: Cytochrome P450 2C19 (Homo sapiens, UniProt P33261); test: Inhibition of CYP2C19 (unknown origin); assay type: ADME; details: not given
Sequence (P33261 whole entry): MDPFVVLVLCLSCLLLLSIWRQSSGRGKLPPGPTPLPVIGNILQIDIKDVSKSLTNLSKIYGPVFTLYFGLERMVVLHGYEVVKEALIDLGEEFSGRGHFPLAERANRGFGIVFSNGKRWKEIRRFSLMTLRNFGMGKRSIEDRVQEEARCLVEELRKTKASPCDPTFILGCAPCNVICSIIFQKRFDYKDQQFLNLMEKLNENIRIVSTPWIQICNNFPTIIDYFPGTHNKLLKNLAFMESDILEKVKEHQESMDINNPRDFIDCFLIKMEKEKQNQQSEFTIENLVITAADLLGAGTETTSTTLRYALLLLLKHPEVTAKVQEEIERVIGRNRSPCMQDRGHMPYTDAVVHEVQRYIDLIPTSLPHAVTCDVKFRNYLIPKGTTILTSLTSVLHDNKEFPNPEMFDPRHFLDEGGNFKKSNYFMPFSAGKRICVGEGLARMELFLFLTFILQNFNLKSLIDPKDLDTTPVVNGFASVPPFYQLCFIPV

| SMILES | IC50 [µM] |
| --- | --- |
| CC1(C)C(=O)N(c2ccc(Oc3ccccc3)cc2)C(=S)N1Cc1ccc(S(N)(=O)=O)c(F)c1 | 4.43 |
| CC(C)(C)c1ccc(N2C(=O)C(C)(C)N(Cc3ccc(S(N)(=O)=O)c(F)c3)C2=S)cc1 | > 10 |
| CC1(C)C(=O)N(c2cc(C(F)(F)F)cc(C(F)(F)F)c2)C(=S)N1Cc1ccc(S(N)(=O)=O)c(F)c1 | > 10 |
| Cc1ccc(CN2C(=S)N(c3ccc(C(C)(C)C)cc3)C(=O)C2(C)C)cc1C | 5.64 |

system: not listed separately; test: Inhibition of NLRP3 inflammasome pathway in human THP-1 cells assessed as inhibition of LPS/MSU-induced IL-1beta secretion; details: not given

| SMILES | IC50 [µM] |
| --- | --- |
| CC1(C)C(=O)N(c2ccc(Oc3ccccc3)cc2)C(=S)N1Cc1ccc(S(N)(=O)=O)c(F)c1 | 5.3 |
| CC(C)(C)c1ccc(N2C(=O)C(C)(C)N(Cc3ccc(S(N)(=O)=O)c(F)c3)C2=S)cc1 | 6.4 |
| CC1(C)C(=O)N(c2cc(C(F)(F)F)cc(C(F)(F)F)c2)C(=S)N1Cc1ccc(S(N)(=O)=O)c(F)c1 | 8.3 |
| Cc1ccc(CN2C(=S)N(c3ccc(C(C)(C)C)cc3)C(=O)C2(C)C)cc1C | 4.3 |

target: Cytochrome P450 2C9 (Homo sapiens, UniProt P11712); test: Inhibition of CYP2C9 (unknown origin); assay type: ADME; details: not given
Sequence (P11712 whole entry): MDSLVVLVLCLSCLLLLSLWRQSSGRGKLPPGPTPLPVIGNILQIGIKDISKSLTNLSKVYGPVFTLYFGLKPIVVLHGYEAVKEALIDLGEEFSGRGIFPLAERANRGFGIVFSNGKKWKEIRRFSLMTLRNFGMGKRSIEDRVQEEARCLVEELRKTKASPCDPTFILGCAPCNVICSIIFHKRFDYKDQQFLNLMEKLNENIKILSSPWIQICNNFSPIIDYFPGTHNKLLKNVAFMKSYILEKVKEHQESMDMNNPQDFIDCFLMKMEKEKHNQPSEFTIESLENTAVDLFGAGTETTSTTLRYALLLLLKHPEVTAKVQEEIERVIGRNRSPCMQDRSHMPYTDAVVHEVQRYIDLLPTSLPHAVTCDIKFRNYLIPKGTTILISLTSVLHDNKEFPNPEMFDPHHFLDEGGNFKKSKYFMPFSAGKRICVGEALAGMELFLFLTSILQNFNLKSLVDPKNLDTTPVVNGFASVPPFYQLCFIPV

| SMILES | IC50 [µM] |
| --- | --- |
| CC1(C)C(=O)N(c2ccc(Oc3ccccc3)cc2)C(=S)N1Cc1ccc(S(N)(=O)=O)c(F)c1 | 7.73 |
| CC(C)(C)c1ccc(N2C(=O)C(C)(C)N(Cc3ccc(S(N)(=O)=O)c(F)c3)C2=S)cc1 | > 10 |
| CC1(C)C(=O)N(c2cc(C(F)(F)F)cc(C(F)(F)F)c2)C(=S)N1Cc1ccc(S(N)(=O)=O)c(F)c1 | 10.2 |
| Cc1ccc(CN2C(=S)N(c3ccc(C(C)(C)C)cc3)C(=O)C2(C)C)cc1C | > 10 |

system: not listed separately; test: Plasma stability in human plasma assessed as compound remaining measured after 30 mins; assay type: ADME, cell-free; details: read-out: Stability

| SMILES | remaining at 0.5 h [%] |
| --- | --- |
| CC1(C)C(=O)N(c2ccc(Oc3ccccc3)cc2)C(=S)N1Cc1ccc(S(N)(=O)=O)c(F)c1 | 92.3 |
| CC(C)(C)c1ccc(N2C(=O)C(C)(C)N(Cc3ccc(S(N)(=O)=O)c(F)c3)C2=S)cc1 | 98.2 |
| CC1(C)C(=O)N(c2cc(C(F)(F)F)cc(C(F)(F)F)c2)C(=S)N1Cc1ccc(S(N)(=O)=O)c(F)c1 | 93.3 |
| Cc1ccc(CN2C(=S)N(c3ccc(C(C)(C)C)cc3)C(=O)C2(C)C)cc1C | 102 |

system: not listed separately; test: Plasma stability in human plasma assessed as compound remaining measured after 60 mins; assay type: ADME, cell-free; details: read-out: Stability

| SMILES | remaining at 1 h [%] |
| --- | --- |
| CC1(C)C(=O)N(c2ccc(Oc3ccccc3)cc2)C(=S)N1Cc1ccc(S(N)(=O)=O)c(F)c1 | 101 |
| CC(C)(C)c1ccc(N2C(=O)C(C)(C)N(Cc3ccc(S(N)(=O)=O)c(F)c3)C2=S)cc1 | 100 |
| CC1(C)C(=O)N(c2cc(C(F)(F)F)cc(C(F)(F)F)c2)C(=S)N1Cc1ccc(S(N)(=O)=O)c(F)c1 | 100 |
| Cc1ccc(CN2C(=S)N(c3ccc(C(C)(C)C)cc3)C(=O)C2(C)C)cc1C | 113 |

target: Cytochrome P450 2D6 (Homo sapiens, UniProt P10635); test: Inhibition of CYP2D6 (unknown origin); assay type: ADME; details: not given
Sequence (P10635 whole entry): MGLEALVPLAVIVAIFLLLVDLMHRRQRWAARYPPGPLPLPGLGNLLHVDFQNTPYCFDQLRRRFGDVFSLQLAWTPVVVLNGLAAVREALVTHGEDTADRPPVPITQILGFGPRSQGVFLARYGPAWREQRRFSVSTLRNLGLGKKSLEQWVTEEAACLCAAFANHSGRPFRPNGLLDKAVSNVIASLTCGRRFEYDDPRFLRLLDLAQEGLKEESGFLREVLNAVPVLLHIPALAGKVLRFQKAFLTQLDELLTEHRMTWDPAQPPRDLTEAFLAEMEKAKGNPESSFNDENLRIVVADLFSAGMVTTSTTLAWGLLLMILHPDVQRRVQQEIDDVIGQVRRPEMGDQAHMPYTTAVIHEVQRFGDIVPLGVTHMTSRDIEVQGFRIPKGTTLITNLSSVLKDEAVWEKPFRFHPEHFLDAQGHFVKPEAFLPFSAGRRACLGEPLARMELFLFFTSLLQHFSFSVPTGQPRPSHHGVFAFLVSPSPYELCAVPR

| SMILES | IC50 [µM] |
| --- | --- |
| CC1(C)C(=O)N(c2ccc(Oc3ccccc3)cc2)C(=S)N1Cc1ccc(S(N)(=O)=O)c(F)c1 | > 10 |
| CC(C)(C)c1ccc(N2C(=O)C(C)(C)N(Cc3ccc(S(N)(=O)=O)c(F)c3)C2=S)cc1 | > 10 |
| CC1(C)C(=O)N(c2cc(C(F)(F)F)cc(C(F)(F)F)c2)C(=S)N1Cc1ccc(S(N)(=O)=O)c(F)c1 | > 10 |
| Cc1ccc(CN2C(=S)N(c3ccc(C(C)(C)C)cc3)C(=O)C2(C)C)cc1C | > 10 |

system: not listed separately; test: Plasma stability in human plasma assessed as half life; assay type: ADME, cell-free; details: not given

| SMILES | half-life [h] |
| --- | --- |
| CC(C)(C)c1ccc(N2C(=O)C(C)(C)N(Cc3ccc(S(N)(=O)=O)c(F)c3)C2=S)cc1 | 10 |
| Cc1ccc(CN2C(=S)N(c3ccc(C(C)(C)C)cc3)C(=O)C2(C)C)cc1C | 32.4 |

target: T1, Cytochrome P450 3A4; test: Inhibition of CYP3A4 (unknown origin) using testosterone as substrate; assay type: ADME; details: not given

| SMILES | IC50 [µM] |
| --- | --- |
| CC1(C)C(=O)N(c2ccc(Oc3ccccc3)cc2)C(=S)N1Cc1ccc(S(N)(=O)=O)c(F)c1 | > 10 |
| CC(C)(C)c1ccc(N2C(=O)C(C)(C)N(Cc3ccc(S(N)(=O)=O)c(F)c3)C2=S)cc1 | > 10 |
| CC1(C)C(=O)N(c2cc(C(F)(F)F)cc(C(F)(F)F)c2)C(=S)N1Cc1ccc(S(N)(=O)=O)c(F)c1 | > 10 |
| Cc1ccc(CN2C(=S)N(c3ccc(C(C)(C)C)cc3)C(=O)C2(C)C)cc1C | > 10 |

system: Mus musculus; test: Anti-inflammatory activity against MSU-induced peritonitis mouse model assessed as reduction in IL-1beta secretion in peritoneal cavity at 10 mg/kg, treated by gavage 30 mins before MSU induction measured after 6 hrs modeling by ELISA; assay type: functional, organism-based; details: not given

| SMILES | Activity |
| --- | --- |
| CC(C)(O)c1coc(S(=O)(=O)NC(=O)Nc2c3c(cc4c2CCC4)CCC3)c1 | Active |
